{
  "source": "paper PMC5285380",
  "about": "“Differential Ability of Bovine Antimicrobial Cathelicidins to Mediate Nucleic Acid Sensing by Epithelial Cells” (Frontiers in Immunology, 2017)",
  "assay_type_in_all_cases": "cell-based",
  "key": {"[1]": {"test_system": "Streptococcus uberis M100/11", "excerpt": "(§1) All bacterial strains including S. aureus strains (M3842, M905-1, and M3850) ([22]), S. uberis strains (M100/11, BL246, and ALP8092) ([23]) and E. coli (9217/10) were isolated from bovine mastitis milk ([24]). All strains were maintained on Trypticase soy agar plates with 5% sheep blood (Becton Dickinson AG, Allschwil, Switzerland) and always freshly plated the day before the experiment. Bacterial colonies were suspended in 0.85% NaCl solution (Axon Lab AG, Baden, Switzerland) to reach an OD value of 0.5 (DensiCHECK PLUS, Biomérieux, Genève, Switzerland), corresponding to approximately 1–1.5 × 10^8 cell/ml. The minimum inhibitory concentration (MIC) of cathelicidins was determined by the broth microdilution method as previously described ([25]). Bacteria were further diluted to approximately 1 × 10^5 cells/ml in cation-adjusted Mueller-Hinton (MH) broth (Thermo Fisher Scientific). Several twofold peptide dilutions (40–0.3 µM) were prepared in a volume of 50 µl MH II broth (Becton Dickinson AG) in a round-bottom 96-well plate. Finally, 50 µl of 10^5 cells/ml were added to the peptide dilutions to reach a final concentration of 5 × 10^4 cells/ml."}, "[2]": {"test_system": "Streptococcus uberis BL246", "excerpt": "as §1"}, "[3]": {"test_system": "Staphylococcus aureus M3850", "excerpt": "as §1"}, "Escherichia coli 9217/10": {"test_system": "Escherichia coli 9217/10", "excerpt": "as §1"}, "[4]": {"test_system": "Staphylococcus aureus M3842", "excerpt": "as §1"}, "[5]": {"test_system": "Streptococcus uberis ALP8092", "excerpt": "as §1"}, "[6]": {"test_system": "Staphylococcus aureus M905-1", "excerpt": "as §1"}, "bovine neutrophils": {"test_system": "bovine neutrophils", "experiment": "ROS in neutrophils (CM-H2DCFDA flow cytometry)", "conditions": "100 ng/ml PMA for 10 min, then 1 h culture; three animals in duplicates", "experimental": "Bovine neutrophil granulocytes were isolated as previously described with a few adaptations ([20], [21]). Bovine blood sampling was performed in compliance with the Swiss animal protection law and approved by the animal welfare committee of the Canton of Bern, Switzerland, license number BE102/15. Briefly, 200 ml of blood was drawn from the jugular vein of cows at the Clinic for Ruminants (Vetsuisse Faculty, University of Bern, Switzerland) and was directly mixed with citrate-based anti-coagulant Alsever’s solution (1.55 mM of C6H12O6, 408 mM of Na3C6H5O7⋅2H2O, 1.078 mM of NaCl, and 43 mM of C6H8O7, pH 6.2). […] Neutrophils were recovered in the pellet, washed once with PBS/EDTA, counted in Trypan blue solution, and resuspended at 5 × 10^7 cells/ml in RPMI 1640 medium (Biochrom GmbH, Berlin, Germany). […] Aliquots of 5 × 10^6 neutrophils per tube were used to quantify ROS. […]\nFigure 6 Cathelicidins can be detected in the supernatants of phorbol myristate acetate (PMA)-activated neutrophils. […] (A) Forward and side scatter characteristics of neutrophils stimulated with PMA or left unstimulated were evaluated by flow cytometry (left). […] (B) Histogram overlay of CM-H2DCFDA fluorescence as an indicator of ROS formation. […]"}, "[7]": {"test_system": "Mx1 in primary bovine turbinate epithelial cells (BT cells)", "experiment": "Mx1 induction in BT cells (western blot), nucleic acid sensing", "conditions": "poly(I:C) alone, titration, 20 h, western blot (Figure S3)", "experimental": "Primary bovine turbinate epithelial cells (BT cells) were obtained as previously described ([26]) and the cultures maintained in DMEM supplemented with 10% FBS, non-essential amino acids (NEAA), neomycin/bacitracin, penicillin/streptomycin (stock solutions purchased from Biochrom), and GlutaMAX (Thermo Fisher Scientific). BT cells were plated in 24-well plates at 50,000 cells/well and incubated for 18 h at 37°C in 5% CO2. For induction of Mx, cathelicidins were mixed with 100 ng/ml of poly(I:C) in a final volume of 1 ml, incubated for 10 min at room temperature, and then added to the cells. Alternatively, different dilutions of neutrophil-derived supernatants were mixed with poly(I:C) at 100 ng/ml in complete medium (DMEM with 10% FBS, NEAA, neomycin/bacitracin, penicillin/streptomycin, and GlutaMAX). Positive controls for Mx1 induction included cell treatment with 100 ng/ml of bovine rIFN-α and 1 µg/ml of poly(I:C). Cultures were further incubated at 37°C for 20 h. […]\nFigure 5 Bovine myeloid antimicrobial peptide (BMAP)-27, sBAMP-27, BMAP-28, BMAP-34, and Bac1 promote nucleic acid sensing in primary epithelial cells. […] After 20 h incubation, Mx1 and β-actin were detected by western blot. […] After 20 h of culture, Mx1 and β-actin were detected by western blot. […]"}},
  "note": "Bridge positions count the residues as written; N and C are the ends. Ends that are not written are not given here. Peptide text beside a SMILES is read from it.",
  "data": [
    {"molecule": "CC[C@H](C)[C@@H]1NC(=O)[C@H](CCCNC(=N)N)NC(=O)[C@@H](NC(=O)[C@H](CC(C)C)NC(=O)[C@@H](N)CCCNC(=N)N)CSSC[C@@H](C(=O)N[C@@H](CCCNC(=N)N)C(=O)O)NC(=O)[C@H](C(C)C)NC(=O)[C@H](CCCNC(=N)N)NC(=O)[C@H]([C@@H](C)CC)NC(=O)[C@H](C(C)C)NC(=O)[C@H](C(C)C)NC1=O", "note": "[Bac1] (H-RLCRIVVIRVCR-OH; disulfide 3-11)", "values": [
      {"measurement": "MIC", "setting": "[1]", "result": "13.33 ± 5", "unit": "µM"},
      {"measurement": "MIC", "setting": "[2]", "result": "20.00 ± 0", "unit": "µM"},
      {"measurement": "MIC", "setting": "[3]", "result": "≥20 ± 6.67", "unit": "µM"},
      {"measurement": "MIC", "setting": "Escherichia coli 9217/10", "result": ">20", "unit": "µM"},
      {"measurement": "MIC", "setting": "[4]", "result": ">20", "unit": "µM"},
      {"measurement": "MIC", "setting": "[5]", "result": "≥20 ± 10", "unit": "µM"},
      {"measurement": "MIC", "setting": "[6]", "result": ">20", "unit": "µM"}
    ]},
    {"molecule": "CCCCCCCCCCCCCC(=O)O[C@@H]1[C@@H](C)[C@@]2(O)[C@@H](C=C(CO)C[C@]3(O)C(=O)C(C)=C[C@@H]23)[C@@H]2C(C)(C)[C@]12OC(C)=O", "note": "[PMA, phorbol myristate acetate]", "values": [
      {"measurement": "fluorescence intensity of CM-H2DCFDA (ROS indicator) compared to unstimulated neutrophils", "setting": "bovine neutrophils", "result": "significantly higher"}
    ]},
    {"molecule": "AGLFRRLRDSIRRGQQKILEKARRIGERIKDIFRG [BMAP-34]", "values": [
      {"measurement": "MIC", "setting": "[1]", "result": "5.00 ± 0", "unit": "µM"},
      {"measurement": "MIC", "setting": "[2]", "result": "4.17 ± 1.25", "unit": "µM"},
      {"measurement": "MIC", "setting": "[3]", "result": "10.00 ± 0", "unit": "µM"},
      {"measurement": "MIC", "setting": "Escherichia coli 9217/10", "result": "5.00 ± 0", "unit": "µM"},
      {"measurement": "MIC", "setting": "[4]", "result": "12.22 ± 4.41", "unit": "µM"},
      {"measurement": "MIC", "setting": "[5]", "result": "5.00 ± 0", "unit": "µM"},
      {"measurement": "MIC", "setting": "[6]", "result": "14.44 ± 5.27", "unit": "µM"}
    ]},
    {"molecule": "GGLRSLGRKILRAWKKYGPIIVPIIRIG [BMAP-28]", "values": [
      {"measurement": "MIC", "setting": "[1]", "result": "10.00 ± 0", "unit": "µM"},
      {"measurement": "MIC", "setting": "[2]", "result": "10.00 ± 0", "unit": "µM"},
      {"measurement": "MIC", "setting": "[3]", "result": "17.78 ± 4.41", "unit": "µM"},
      {"measurement": "MIC", "setting": "Escherichia coli 9217/10", "result": "10.00 ± 0", "unit": "µM"},
      {"measurement": "MIC", "setting": "[4]", "result": "13.33 ± 5", "unit": "µM"},
      {"measurement": "MIC", "setting": "[5]", "result": "10.00 ± 0", "unit": "µM"},
      {"measurement": "MIC", "setting": "[6]", "result": "14.44 ± 5.27", "unit": "µM"}
    ]},
    {"molecule": "GLPKLHFRRKKGKLVSFPLKFKFKIRL [sBMAP-27]", "values": [
      {"measurement": "MIC", "setting": "[1]", "result": "5.00 ± 0", "unit": "µM"},
      {"measurement": "MIC", "setting": "[2]", "result": "5.56 ± 1.67", "unit": "µM"},
      {"measurement": "MIC", "setting": "[3]", "result": "17.78 ± 4.41", "unit": "µM"},
      {"measurement": "MIC", "setting": "Escherichia coli 9217/10", "result": "10.00 ± 0", "unit": "µM"},
      {"measurement": "MIC", "setting": "[4]", "result": "≥20 ± 10", "unit": "µM"},
      {"measurement": "MIC", "setting": "[5]", "result": "8.33 ± 2.5", "unit": "µM"},
      {"measurement": "MIC", "setting": "[6]", "result": "20.00 ± 0", "unit": "µM"}
    ]},
    {"molecule": "GRFKRFRKKFKKLFKKLSPVIPLLHLG [BMAP-27]", "values": [
      {"measurement": "MIC", "setting": "[1]", "result": "2.78 ± 0.83", "unit": "µM"},
      {"measurement": "MIC", "setting": "[2]", "result": "4.17 ± 1.25", "unit": "µM"},
      {"measurement": "MIC", "setting": "[3]", "result": "7.22 ± 2.64", "unit": "µM"},
      {"measurement": "MIC", "setting": "Escherichia coli 9217/10", "result": "2.50 ± 0", "unit": "µM"},
      {"measurement": "MIC", "setting": "[4]", "result": "5.00 ± 0", "unit": "µM"},
      {"measurement": "MIC", "setting": "[5]", "result": "4.72 ± 0.83", "unit": "µM"},
      {"measurement": "MIC", "setting": "[6]", "result": "8.33 ± 2.5", "unit": "µM"}
    ]},
    {"molecule": "Polyinosinic–polycytidylic acid [poly(I:C)]", "values": [
      {"measurement": "concentration of poly(I:C) below which induction of Mx1 was not detectable", "setting": "[7]", "result": 156, "unit": "ng/mL"}
    ]},
    {"molecule": "RFRPPIRRPPIRPPFYPPFRPPIRPPIFPPIRPPFRPPLGPFP [Bac5]", "values": [
      {"measurement": "MIC", "setting": "[1]", "result": "2.78 ± 0.83", "unit": "µM"},
      {"measurement": "MIC", "setting": "[2]", "result": "6.11 ± 2.2", "unit": "µM"},
      {"measurement": "MIC", "setting": "[3]", "result": ">20", "unit": "µM"},
      {"measurement": "MIC", "setting": "Escherichia coli 9217/10", "result": ">20", "unit": "µM"},
      {"measurement": "MIC", "setting": "[4]", "result": ">20", "unit": "µM"},
      {"measurement": "MIC", "setting": "[5]", "result": "20.00 ± 0", "unit": "µM"},
      {"measurement": "MIC", "setting": "[6]", "result": ">20", "unit": "µM"}
    ]}
  ]
}
